Measurements reported in BindingDB's records for doi:10.1111/cbdd.12330 (Institute of Experimental Botany Ascr and Palacky University, 2014).

Experiments:
Assay in all cases: Kinase Selectivity
[1] = molecular target: Cyclin-dependent kinase 7 (Homo sapiens, UniProt P50613)
Method: (§1) Cyclin-dependent kinase selectivity was evaluated using CDK1-cyclin B, CDK2-cyclin E, CDK4-cyclin D1, CDK7-cyclin H, and CDK9-cyclin T1.

[2] = molecular target: Cyclin-dependent kinase 4 (Homo sapiens, UniProt P11802)
Method: as §1

[3] = molecular target: Cyclin-dependent kinase 9 (Homo sapiens, UniProt P50750)
Method: as §1

[4] = molecular target: Cyclin-dependent kinase 1 (Homo sapiens, UniProt P06493)
Method: as §1

[5] = molecular target: Cyclin-dependent kinase 2 (Homo sapiens, UniProt P24941)
Method: as §1

Sequence of Cyclin-dependent kinase 9 (P50750 whole entry): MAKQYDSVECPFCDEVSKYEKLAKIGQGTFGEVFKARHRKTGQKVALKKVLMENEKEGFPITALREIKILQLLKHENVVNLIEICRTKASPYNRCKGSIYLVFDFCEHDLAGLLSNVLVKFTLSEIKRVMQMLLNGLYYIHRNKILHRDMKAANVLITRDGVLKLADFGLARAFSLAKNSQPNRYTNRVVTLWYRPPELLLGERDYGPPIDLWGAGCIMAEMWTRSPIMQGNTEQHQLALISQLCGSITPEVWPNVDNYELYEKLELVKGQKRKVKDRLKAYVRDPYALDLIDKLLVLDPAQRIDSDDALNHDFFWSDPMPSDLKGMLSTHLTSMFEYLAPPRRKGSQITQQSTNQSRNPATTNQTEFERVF
Sequence of Cyclin-dependent kinase 1 (P06493 whole entry): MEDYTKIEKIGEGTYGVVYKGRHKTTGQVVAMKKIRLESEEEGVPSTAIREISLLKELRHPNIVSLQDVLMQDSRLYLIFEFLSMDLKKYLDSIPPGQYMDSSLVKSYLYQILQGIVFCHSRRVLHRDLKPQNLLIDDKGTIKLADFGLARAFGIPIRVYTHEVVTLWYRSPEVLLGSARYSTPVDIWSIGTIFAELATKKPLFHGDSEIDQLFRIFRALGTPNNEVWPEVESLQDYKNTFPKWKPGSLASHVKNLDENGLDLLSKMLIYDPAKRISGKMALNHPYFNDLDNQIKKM
Sequence of Cyclin-dependent kinase 7 (P50613 whole entry): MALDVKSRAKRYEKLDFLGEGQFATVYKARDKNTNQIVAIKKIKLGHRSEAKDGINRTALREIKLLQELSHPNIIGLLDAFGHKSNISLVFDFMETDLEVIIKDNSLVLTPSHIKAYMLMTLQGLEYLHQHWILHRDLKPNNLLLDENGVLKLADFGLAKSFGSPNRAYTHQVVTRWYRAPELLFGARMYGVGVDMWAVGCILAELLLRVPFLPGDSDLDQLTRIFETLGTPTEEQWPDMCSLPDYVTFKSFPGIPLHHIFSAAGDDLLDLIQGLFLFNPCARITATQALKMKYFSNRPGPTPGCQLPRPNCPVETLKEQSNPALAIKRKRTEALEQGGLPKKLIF
Sequence of Cyclin-dependent kinase 4 (P11802 whole entry): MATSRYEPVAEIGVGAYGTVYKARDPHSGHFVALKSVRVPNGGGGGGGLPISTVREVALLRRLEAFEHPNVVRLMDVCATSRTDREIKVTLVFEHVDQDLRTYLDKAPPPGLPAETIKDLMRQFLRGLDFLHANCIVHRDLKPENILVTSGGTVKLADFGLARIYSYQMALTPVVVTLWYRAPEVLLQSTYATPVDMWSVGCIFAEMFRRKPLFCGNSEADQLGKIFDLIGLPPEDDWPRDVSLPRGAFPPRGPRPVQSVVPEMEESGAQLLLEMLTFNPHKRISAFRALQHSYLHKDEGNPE

Nc1n[nH]c(N)c1/N=N/c1ccncc1 [AAP1742]
IC50 [1]: 14900 nM | IC50 [2]: 454 nM | IC50 [3]: 280 nM | IC50 [4]: 1330 nM | IC50 [5]: 549 nM
